For assay [1], the system named is Bone cells. Kind of assay: ALP activity of bone cells. Format: cell-based, rat. To be noted: for ALP activity of the bone cells: 0.3, 1, 3, 10 μM, FIG. 8A. The source says: Rat primary osteoblast was isolated from the parietal bone of gestation day 18 embryos of Sprague-Dawley rats. After being slaughtered, the embryo rats were obtained from the uteruses of the rats, and calvarium was isolated from the embryo rats. […] The digestion step was repeated five times. […] When cells were attached and confluence, they were sub-cultured, which was called “passage 2 (P2)”. The passage was for analogizing. 2 to 5 passage cells were used for the experiments. Bone cells were treated with 0.3, 1, 3, and 10 μM of imperatorin and bergapten, respectively. After treatment, the osteoblast cells were digested in 0.2% NP-40 solution, and then centrifuged at 1500 g for 5 minutes. The ALP activity of the osteoblast cells was tested using an ALP kit (Roche Applied Science). […] Referring to FIG. 8A, imperatorin and bergapten both increased the ALP activity of the bone cells.

In assay [2] the test system is Bone cells. Kind of assay: Collagen secretion in bone cells. Type of assay: cell-based, rat. To be noted: for collagen secretion in the bone cells: 0.3, 1, 3, 10 μM, FIG. 8B; for increase of collagen content / collagen synthesis: 'at least' figure. How it is done:
(§1) Rat primary osteoblast was isolated from the parietal bone of gestation day 18 embryos of Sprague-Dawley rats. After being slaughtered, the embryo rats were obtained from the uteruses of the rats, and calvarium was isolated from the embryo rats. Parietal bone was cut from the calvarium and digested by 0.1% collagenase for 20 minutes to release the bone cells from the bone tissue. The digestion step was repeated five times. The collected bone cells were cultured in α-MEM containing 1% penicillin-streptomycin and 10% FBS in a humidified atmosphere of 5 percent carbon dioxide. When cells were attached and confluence, they were sub-cultured, which was called “passage 2 (P2)”. The passage was for analogizing. 2 to 5 passage cells were used for the experiments.
Bone cells were treated with 0.3, 1, 3, and 10 μM of imperatorin and bergapten, respectively. After treatment, the cells were lysed in 6N HCl at 116° C. for 16 hrs, and dried in a vacuum. The resultant residue was dissolved in an equal volume of water, and then absorbance was measured at […]. The collagen secretion in the control group which was treated with 0.1% DMSO was defined as 100%. Referring to FIG. 8B, imperatorin and bergapten both increased the collagen secretion in the bone cells

A further assay concerns SMADs. Kind of assay: Phosphorylation of SMADs (western blot). Format: cell-based, rat. To be noted: 10 μM, 1, 3, 6, 12, 24 hrs; FIG. 10. How it is done:
as §1
(§2) Bone cells was cultured in 6-well plate and treated with 10 μM of imperatorin and bergapten for 1, 3, 6, 12, and 24 hrs, respectively. […] Following incubation with the secondary antibody, the membrane was washed three times with PBST, and detected by an […] chemiluminescence using an ECL blotting substrate according to the manufacturer's instructions. […]

The subject of a further assay is ERK mutant cell (DN-ERK). Briefly: ALP activity in ERK mutant cell. To be noted: 10 μM; FIG. 11D. Format: cell-based. How it is done:
(§3) Bone cells were cultured and treated with (1) 10 μM SB203580, (2) 10 μM PD98059, (3) 10 μM imperatori, (4) 10 μM bergapten, (5) 10 μM imperatorin+SB203580, (6) 10 μM bergapten+SB203580, (7) 10 μM imperatorin+PD98059 ? (8) 10 μM bergapten+PD98059 for 48 hrs. After treatment, the bone cells were lysed in 0.2% […] solution and centrifuged at 1500×g for 5 minutes. The supernatant was analyzed by an ALP kit such as described above to obtain the ALP activity. The ALP activity in the control group which was treated with 0.1% DMSO was defined as 100%. Referring to FIG. 11C, p38 inhibitor (SB203580) and ERK inhibitor (PD98059) suppressed the imperatorin and bergapten induced-ALP activity.
(§4) The same procedure carried out in Example 20 was repeated. The experiment group used alternative cells and treatment comprising: (1) DN-p38 cell, (2) DN-ERK cell, (3) DN-p38 cell+10 μM imperatorin, (4) DN-p38 cell+10 μM bergapten, (5) DN-ERK cell+10 μM imperatorin, (6) DN-ERK cell+10 μM bergapten, (7) normal bone cell+10 μM imperatorin, and (8) normal bone cell+10 μM bergapten. The ALP activity in the control group which was treated with 0.1% DMSO was defined as 100%. Referring to FIG. 11D, the ALP activity was not induced in p38 mutant cell (DN-p38) and ERK mutant cell (DN-ERK) by imperatorin and bergapten.

In the next assay the test system is p38 mutant cell (DN-p38). Briefly: ALP activity in p38 mutant cell. Format: cell-based. To be noted: 10 μM; FIG. 11D. How it is done: as §3, §4
A further assay concerns BMP-2 gene. Kind of assay: BMP-2 gene expression (RT-PCR). Format: cell-based, rat. To be noted: for BMP-2 mRNA level, dependence on concentration: 0.3, 1, 3, 10 μM, FIG. 9A; for BMP-2 mRNA level, dependence on treatment time: 1, 3, 6, 12 hrs, FIG. 9B. How it is done: as §1
Bone cells were cultured in 6-well Plate and cultured with 0.3, 1, 3, and 10 μM of imperatorin and bergapten for 1, 3, 6, and 12 hrs, respectively. After treatment, the cells were lysed with TRIzol reagent at room temperature for 5 minutes, and then collected in a centrifuge tube. 0.5 ml of chloroform was added to the centrifuge tube. After the addition of chloroform, the centrifuge tube was well mixed, and centrifuged at 14000×g for 15 minutes at room temperature to obtain a supernatant. The supernatant was mixed with isopropanol (0.25 ml) and then centrifuged at 14000×g at room temperature for 15 minutes to obtain a precipitated RNA. RNA was washed with 75% alcohol, centrifuged at 14000×g for 10 minutes, and dried to give a RNA pellet. The RNA pellet was dissolved in diethyl pyrocarbonate (DEPC) solution and then quantitated by measurement of OD260/280. BMP-2 gene expression (BMP-2 mRNA level) was detected by RT-PCR using Supperscript™ III reverstranscriptase and […] (Applied Biosystems). The BMP-2 mRNA level in the control group which was treated with 0.1% DMSO was defined as 100%.

The subject of the next assay is p38. Briefly: Phosphorylation of p38 (western blot). Type of assay: cell-based, rat. The conditions noted are these: 10 μM, 1, 3, 6, 12, 24 hrs; FIG. 10. The procedure:
as §1, §2

The structures appear in SMILES notation. A value given as a limit tells only on which side of the number the result lay.

In the case of `COc1c2ccoc2cc2oc(=O)ccc12` [bergapten], the “ALP activity of the bone cells” value in the assay with Bone cells [1] is given as “increased”. The “increase of alkaline phosphatase (ALP) activity” value (“increase of alkaline phosphatase” below) in the assay on Bone cells [1] ('at least' figure) was no less than 80.0%. In the assay with Bone cells [2], the “collagen secretion in the bone cells” value is recorded as “increased” and the “increase of collagen content / collagen synthesis” value is given as “at least 100%”. Further, the “phosphorylation of SMADs” value in the assay with SMADs is “induced”. In addition, the “ALP activity in ERK mutant cell (DN-ERK)” value in the assay with ERK mutant cell (DN-ERK) is “not induced”. Also, the “ALP activity in p38 mutant cell (DN-p38)” value in the assay with p38 mutant cell (DN-p38) is “not induced”. In addition, in the assay on BMP-2 gene, the “BMP-2 mRNA level, dependence on concentration” value is on record as “increased according to the increase of the concentration” and the “BMP-2 mRNA level, dependence on treatment time” value is reported as “increased according to the increase of the treatment time”. The “phosphorylation of p38” value in the assay with p38 is “induced”.
With `CC(C)=CCOc1c2occc2cc2ccc(=O)oc12` [imperatorin], the “ALP activity of the bone cells” value with Bone cells [1] was “increased”. Besides, the “increase of alkaline phosphatase” value with Bone cells [1] ('at least' figure) is no less than 6.0%. The “increase of alkaline phosphatase” value in the assay on Bone cells [1] ('preferably ... at least' figure) is on record as “at least 95%”. Besides, in the assay on Bone cells [2], the “collagen secretion in the bone cells” value was “increased” and the “increase of collagen content / collagen synthesis” value is listed as “at least 102.0%”. In addition, the “phosphorylation of SMADs” value in the assay on SMADs is listed as “induced”. In the assay with ERK mutant cell (DN-ERK), the “ALP activity in ERK mutant cell (DN-ERK)” value was “not induced”. Also, the “ALP activity in p38 mutant cell (DN-p38)” value in the assay with p38 mutant cell (DN-p38) was “not induced”. Further, in the assay with BMP-2 gene, the “BMP-2 mRNA level, dependence on concentration” value is “increased according to the increase of the concentration” and the “BMP-2 mRNA level, dependence on treatment time” value is “increased according to the increase of the treatment time”. For the same compound, the “phosphorylation of p38” value with p38 is given as “induced”.

The values above are taken from patent US7914821B2, “Pharmaceutical composition for prevention and/or treatment of bone loss” (KO DA Pharmaceuticals Co., Ltd., priority 2008, dated 2011).
